In ChEMBL document CHEMBL1201862, “PubChem BioAssay data set” (2004):
Active and inactive are the calls of the source. Rule as the data show it, for most assays here: actives have a measured EC50 and inactives only a lower limit.

Legend:
[1] = target: T1, Rac GTPase-activating protein 1 (Homo sapiens, UniProt Q9H0H5); assay: blockers of MgcRacGAP-driven Rac1 GTP hydrolysis – biochemical, ADP Hunter fluorescence, primary and confirmatory, confirmation (AID 624330); format: functional
T1 sequence (Q9H0H5 whole entry): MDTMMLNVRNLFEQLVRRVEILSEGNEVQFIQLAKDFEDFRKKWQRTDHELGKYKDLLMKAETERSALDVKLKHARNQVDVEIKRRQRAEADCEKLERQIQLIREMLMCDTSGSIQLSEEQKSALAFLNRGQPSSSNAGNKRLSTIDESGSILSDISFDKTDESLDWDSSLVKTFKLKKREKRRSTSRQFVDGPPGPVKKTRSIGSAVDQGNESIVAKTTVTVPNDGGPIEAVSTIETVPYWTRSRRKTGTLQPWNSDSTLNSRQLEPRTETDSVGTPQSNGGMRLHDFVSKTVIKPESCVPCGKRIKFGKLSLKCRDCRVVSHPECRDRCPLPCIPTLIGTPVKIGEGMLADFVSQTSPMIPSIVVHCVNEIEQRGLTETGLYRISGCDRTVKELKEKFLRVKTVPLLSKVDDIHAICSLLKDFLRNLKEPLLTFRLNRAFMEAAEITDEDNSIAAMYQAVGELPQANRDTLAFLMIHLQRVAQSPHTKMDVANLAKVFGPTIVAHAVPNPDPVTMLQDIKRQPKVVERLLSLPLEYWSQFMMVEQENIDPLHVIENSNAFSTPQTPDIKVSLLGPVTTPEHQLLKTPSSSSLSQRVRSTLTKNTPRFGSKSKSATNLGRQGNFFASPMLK

[2] = Counterscreen for IDE inhibitors: Luminescence-based cell-based high throughput dose response assay to identify compounds that are cytotoxic to HEK cells. [Related pubchem assays: 434962 (Primary screen (IDE inhibitors in singlicate)), 449730 (Counterscreen (Cytotoxicity in triplicate)), 435028 (Confirmation (IDE inhibitors in triplicate)) …; format: functional; settings: HEK293
[3] = viability loss in HeLa cells – cytotoxicity control for MgcRacGAP inhibitor project, dose response (AID 624300); format: functional
[4] = target: T2, Insulin-degrading enzyme (Homo sapiens, UniProt P14735); assay: Dose Response: Fluorescence polarization-based cell-based high throughput dose response assay for inhibitors of insulin-degrading enzyme (IDE). [Related pubchem assays: 434962 (Primary screen (IDE inhibitors in singlicate)), 449730 (Counterscreen (Cytotoxicity in triplicate)), 435028 (Confirmation (IDE inhibitors in triplicate)), 434984 (Summary …; format: functional
T2 sequence (P14735 whole entry): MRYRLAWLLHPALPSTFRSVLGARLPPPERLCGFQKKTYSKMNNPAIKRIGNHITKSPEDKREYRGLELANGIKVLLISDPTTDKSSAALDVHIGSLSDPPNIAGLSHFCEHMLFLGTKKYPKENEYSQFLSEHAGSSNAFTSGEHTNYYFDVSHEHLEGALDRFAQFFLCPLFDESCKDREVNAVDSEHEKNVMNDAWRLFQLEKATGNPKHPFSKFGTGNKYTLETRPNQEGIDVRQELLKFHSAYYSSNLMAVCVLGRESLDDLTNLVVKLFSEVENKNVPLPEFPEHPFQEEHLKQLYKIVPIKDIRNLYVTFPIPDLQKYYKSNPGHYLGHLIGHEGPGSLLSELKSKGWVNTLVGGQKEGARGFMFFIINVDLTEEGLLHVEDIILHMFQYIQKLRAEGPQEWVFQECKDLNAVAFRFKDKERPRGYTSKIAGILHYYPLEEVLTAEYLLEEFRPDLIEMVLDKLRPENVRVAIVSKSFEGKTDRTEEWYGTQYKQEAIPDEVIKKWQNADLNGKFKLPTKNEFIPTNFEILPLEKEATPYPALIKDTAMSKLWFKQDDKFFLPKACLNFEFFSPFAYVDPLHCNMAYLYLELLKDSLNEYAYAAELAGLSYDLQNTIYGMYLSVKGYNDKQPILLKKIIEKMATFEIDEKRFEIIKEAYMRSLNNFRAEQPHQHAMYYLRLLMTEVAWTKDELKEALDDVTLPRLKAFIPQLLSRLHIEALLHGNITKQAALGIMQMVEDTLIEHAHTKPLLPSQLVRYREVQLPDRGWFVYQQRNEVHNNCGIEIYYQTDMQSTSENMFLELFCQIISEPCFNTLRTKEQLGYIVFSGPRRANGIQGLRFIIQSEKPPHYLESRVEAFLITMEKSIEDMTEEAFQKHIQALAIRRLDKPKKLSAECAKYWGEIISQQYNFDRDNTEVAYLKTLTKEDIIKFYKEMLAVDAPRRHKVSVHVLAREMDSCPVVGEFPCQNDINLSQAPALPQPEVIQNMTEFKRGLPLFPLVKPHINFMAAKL

[5] = microbe, parasite or virus in culture; format: functional; settings: Mycobacterium tuberculosis
[6] = luciferase reporter signal suppression in cells – H4 neuroglioma cells, luminescence, dose response (AID 1990); format: functional, cell-based
[7] = Luminescence Cell-Based Dose Response HTS to Identify Inhibitors of 5'UTR Stem-Loop Driven Prion Protein mRNA Translation in H4 Neuroglioblastoma Cells. [Related pubchem assays: 1827 (Project Summary), 1813 (Primary HTS)]; format: functional
[8] = alpha-synuclein stem-loop luciferase translation blockers – H4 neuroglioma cells, luminescence, confirmation (AID 1988); format: functional, cell-based
[9] = alpha-synuclein stem-loop translation blockers – luminescence, H4 neuroglioblastoma cells, dose confirmation, confirmation (AID 2454); format: functional, cell-based;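 also: H4 neuroglioblastoma cells carrying an alpha-synuclein 5'UTR luciferase reporter; potency for inhibition of the luciferase signal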
[10] = luciferase reporter signal reduction – luminescence, H4-C neuroglioblastoma cells, dose response (AID 2458); format: functional, cell-based;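 also: H4 neuroglioblastoma cells stably carrying a luciferase reporter gene fusion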
[11] = cells; format: functional, cell-based
[12] = Luminescence-based counterscreen assay for KLF5 inhibitors: dose response cell-based high throughput screening assay to identify cytotoxic compounds using the IEC-6 intestinal epithelial cell line. [Related pubchem assays: 1700 (Primary screen.), 1834 (Confirmation screen.), 1858 (Summary AID.), 1905 (Counterscreen.)]; format: functional
[13] = target: T3, Mannose-6-phosphate isomerase (Homo sapiens, UniProt P34949); assay: MPI inhibition at elevated mannose 6-phosphate – biochemical, fluorescence intensity, high mannose 6-phosphate, primary screen (AID 1220)
T3 sequence (P34949 whole entry): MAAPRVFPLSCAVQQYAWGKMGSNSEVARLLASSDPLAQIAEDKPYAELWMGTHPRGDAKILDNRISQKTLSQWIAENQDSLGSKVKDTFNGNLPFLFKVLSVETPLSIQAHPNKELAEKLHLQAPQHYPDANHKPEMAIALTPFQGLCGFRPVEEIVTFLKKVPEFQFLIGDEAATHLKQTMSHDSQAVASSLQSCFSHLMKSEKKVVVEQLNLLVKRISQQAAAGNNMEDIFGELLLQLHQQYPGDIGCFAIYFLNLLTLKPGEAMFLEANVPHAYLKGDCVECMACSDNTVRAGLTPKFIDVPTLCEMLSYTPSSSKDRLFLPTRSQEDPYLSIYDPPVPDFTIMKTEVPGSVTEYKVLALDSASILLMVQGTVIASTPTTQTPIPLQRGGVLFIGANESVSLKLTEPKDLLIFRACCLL

[14] = target: T4, Streptokinase A (Streptococcus pyogenes serotype M1, UniProt P10520); assay: viability-normalized secreted streptokinase activity reduction – plasminogen activation absorbance, OD405, dose response (AID 1914); format: functional, Streptococcus pyogenes M1 GAS;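 also: secreted streptokinase activity via plasminogen activation per viability signal from cell pellet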
T4 sequence (P10520 whole entry): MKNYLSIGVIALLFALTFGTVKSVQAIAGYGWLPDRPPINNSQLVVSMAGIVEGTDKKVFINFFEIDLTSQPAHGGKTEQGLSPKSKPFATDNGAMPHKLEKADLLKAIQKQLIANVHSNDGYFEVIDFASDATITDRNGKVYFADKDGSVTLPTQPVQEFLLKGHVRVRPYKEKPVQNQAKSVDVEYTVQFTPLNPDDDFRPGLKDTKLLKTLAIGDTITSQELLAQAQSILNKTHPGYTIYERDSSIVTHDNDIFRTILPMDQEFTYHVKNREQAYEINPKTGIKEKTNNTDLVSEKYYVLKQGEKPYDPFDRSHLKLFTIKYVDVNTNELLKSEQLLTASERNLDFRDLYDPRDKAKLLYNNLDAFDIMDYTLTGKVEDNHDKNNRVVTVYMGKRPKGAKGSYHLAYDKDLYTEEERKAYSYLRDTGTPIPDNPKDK

[15] = system: Streptococcus; assay: GAS UMAA2166 growth inhibition – luminescence, BacTiterGlo, counter-screen for streptokinase expression inhibitor project, dose response (AID 1915); format: functional, organism-based;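 also: potency for reduction of bacterial viability or growth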
[16] = system: INS1; assay: INS-1E survival protection against cytokine death – cell-based, luminescence, retest, dose response (AID 449756); format: functional; settings: Rattus norvegicus;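 also: cell death triggered by IL-1 beta plus TNF-alpha plus IFN-gamma mixture; protective hits raise ATP signal compared with cytokine alone wells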
[17] = target: T5, Protein RecA (Mycobacterium tuberculosis, UniProt P9WHJ3); assay: Fluorescence Cell-Free Homogeneous Dose Retest to Identify Inhibitors of RecA-Intein Splicing Activity. [Related pubchem assays (depositor defined):AID2097, AID2223, AID489010, AID492950]; format: functional
T5 sequence (P9WHJ3 whole entry): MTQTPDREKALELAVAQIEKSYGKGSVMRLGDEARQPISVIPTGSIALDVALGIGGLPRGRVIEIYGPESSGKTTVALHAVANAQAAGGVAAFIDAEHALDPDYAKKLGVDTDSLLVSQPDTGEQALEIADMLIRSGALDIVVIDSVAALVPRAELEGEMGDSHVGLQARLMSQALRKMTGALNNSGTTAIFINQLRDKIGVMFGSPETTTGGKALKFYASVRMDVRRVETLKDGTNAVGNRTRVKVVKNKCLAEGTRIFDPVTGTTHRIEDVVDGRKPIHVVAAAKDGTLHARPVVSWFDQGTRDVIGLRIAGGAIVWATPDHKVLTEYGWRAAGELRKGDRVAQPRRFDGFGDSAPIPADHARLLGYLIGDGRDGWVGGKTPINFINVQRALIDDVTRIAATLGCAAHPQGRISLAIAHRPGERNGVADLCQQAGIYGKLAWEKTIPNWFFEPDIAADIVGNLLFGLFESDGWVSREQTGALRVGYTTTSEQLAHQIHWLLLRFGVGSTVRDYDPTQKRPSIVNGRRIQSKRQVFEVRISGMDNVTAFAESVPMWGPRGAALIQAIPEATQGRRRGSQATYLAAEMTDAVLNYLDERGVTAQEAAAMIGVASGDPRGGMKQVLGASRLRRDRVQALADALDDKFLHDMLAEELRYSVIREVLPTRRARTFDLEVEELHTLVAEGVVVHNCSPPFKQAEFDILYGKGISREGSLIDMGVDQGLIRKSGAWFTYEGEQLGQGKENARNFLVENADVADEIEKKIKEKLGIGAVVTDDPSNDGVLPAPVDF

[18] = viability of PTEN-deleted HCT116 cells – cell-based, HCT116 PTEN knockout, dose response (AID 1047); format: functional;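 also: HCT116 colon tumor cells with PTEN knocked out; cells exposed to compound for 60 hours before readout; potency for loss of cell viability measured by luminescence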
[19] = target: T6, Replicative DNA helicase DnaB (Mycobacterium tuberculosis, UniProt P9WMR3); assay: DnaB intein splicing inhibitors, dose response, biochemical, cell-free fluorescence (AID 449749); format: functional
T6 sequence (P9WMR3 whole entry): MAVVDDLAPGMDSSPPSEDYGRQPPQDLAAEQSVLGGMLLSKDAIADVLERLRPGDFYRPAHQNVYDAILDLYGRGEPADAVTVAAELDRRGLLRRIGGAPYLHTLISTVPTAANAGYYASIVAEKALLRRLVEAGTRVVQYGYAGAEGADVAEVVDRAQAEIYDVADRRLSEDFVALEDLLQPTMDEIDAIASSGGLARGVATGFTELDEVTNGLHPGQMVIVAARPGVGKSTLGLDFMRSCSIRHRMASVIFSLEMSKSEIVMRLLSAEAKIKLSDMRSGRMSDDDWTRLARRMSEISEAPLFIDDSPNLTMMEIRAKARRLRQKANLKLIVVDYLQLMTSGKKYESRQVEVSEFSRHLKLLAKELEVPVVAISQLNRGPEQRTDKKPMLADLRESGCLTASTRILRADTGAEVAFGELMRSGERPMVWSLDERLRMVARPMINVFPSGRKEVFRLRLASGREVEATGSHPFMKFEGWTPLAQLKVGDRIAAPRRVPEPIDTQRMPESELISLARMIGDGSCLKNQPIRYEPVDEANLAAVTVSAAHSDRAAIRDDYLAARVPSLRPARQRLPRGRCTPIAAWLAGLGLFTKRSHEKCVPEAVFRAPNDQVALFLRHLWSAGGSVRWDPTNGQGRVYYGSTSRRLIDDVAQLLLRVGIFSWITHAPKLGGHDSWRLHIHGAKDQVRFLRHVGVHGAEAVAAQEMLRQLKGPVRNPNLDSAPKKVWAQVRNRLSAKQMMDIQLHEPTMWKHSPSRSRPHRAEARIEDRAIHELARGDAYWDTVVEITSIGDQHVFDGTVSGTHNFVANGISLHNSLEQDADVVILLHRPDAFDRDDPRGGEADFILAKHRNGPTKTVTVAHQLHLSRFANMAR

[20] = NIH-3T3 fibroblast cytotoxicity, dose response, cytotoxicity control, cell-based, fluorescence, Alamar Blue, secondary assay (AID 2327); format: functional;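 also: NIH-3T3 mouse fibroblasts cultured with fluconazole at 8 µg/mL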
[21] = fluconazole-exposed Candida albicans growth modulators – fluorescence, retest, confirmation (AID 2467); format: functional, cell-based
[22] = system: BJ; assay: growth inhibition of engineered Ras-driven BJ cells – cell-based, alamar blue fluorescence, cherrypicked samples, dose response (AID 2631); format: functional; settings: Homo sapiens;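 also: confirmatory dose-response assay in RAS-dependent BJ fibroblasts engineered with TERT, LT and ST, with cytotoxicity read by fluorescence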
[23] = viability of HCT116 lacking mutant beta-catenin – cell-based, human colon tumor, dose response (AID 1045); format: functional;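 also: HCT116 colon tumor cells with beta catenin knocked out; cells exposed to compound for 60 hours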
[24] = system: Streptococcus sp. 'group A'; assay: Streptococcus pyogenes SK(-)GAS viability under kanamycin – luminescence, BacTiterGlo, confirmation, counter-screen for streptokinase expression inhibitor project, dose response (AID 1900); format: functional, organism-based

COc1ccc(NC2=NC(=O)/C(=C/c3ccc(O)c(OC)c3)S2)cc1
IC50 [1]: 17.9 µM (active)
IC50 [2]: 38.1 µM (not active)
CC50 [3]: 95.4 µM (active)
IC50 [4]: > 6.22 µM (active)

Cc1ccc(NC(=O)CSc2nnc(CN3CCOCC3)n2C)cc1C
IC50 [2]: > 55.7 µM (not active)
IC50 [4]: > 55.9 µM (not active)

Cc1ccc(C(=O)Nc2cccc(C(F)(F)F)c2)cc1Nc1[nH]cnc2ncnc1-2
CC50 [5]: 34.8 µM (active)
EC50 [6]: < 100 nM (active)
EC50 [7]: 11.8 µM (active)
EC50 [8]: < 0.1 µM (active)
EC50 [9]: > 12 µM (not active)
EC50 [10]: 1.22 µM (active)
EC50 [11]: 4.59 µM (active)

C/N=C1\C(=O)c2ccccc2C(O)=C1N(C(C)=O)c1ccc(Br)cc1
IC50 [12]: 5.7 µM (active)
IC50 [13]: > 50 µM (not active)
EC50 [14]: 23.9 µM (active)
EC50 [15]: > 150 µM (not active)
AC50 [16]: 548 nM (active)
EC50 [17]: 795 nM (active)
EC50 [18]: 688 nM (active)
AC50 [19]: 11.3 µM (active)
EC50 [7]: 11.4 µM (active)
EC50 [8]: 8.7 µM (active)
EC50 [20]: 3.59 µM (inconclusive)
EC50 [21]: 242 nM (active)
EC50 [22]: 2.38 µM (active)
EC50 [23]: 594 nM (active)
EC50 [24]: 6.44 µM (active)
